# Key:
# Conditions in all cases: 72 h
# Calu-3 [1] = test: drug sensitivity score (DSS) for viability; higher = more toxic; extreme values may be limits of the assay
# Vero E6 [2] = test: as above
# HepG2 [3] = test: as above
# U2OS [4] = test: as above
# Caco-2 [5] = test: as above
# Vero E6 [6] = test: relative viability EC50 (midpoint between 100% and the lowest measured viability); higher = less toxic
# HepG2 [7] = test: as above
# U2OS [8] = test: as above
# Caco-2 [9] = test: as above
# Calu-3 [10] = test: cell viability relative to DMSO; higher = less toxic
# Vero E6 [11] = test: as above
# HepG2 [12] = test: as above
# U2OS [13] = test: as above
# Caco-2 [14] = test: as above
# Calu-3 [15] = test: relative viability EC50 (midpoint between 100% and the lowest measured viability); higher = less toxic
SMILES,drug sensitivity score (Calu-3 [1]),drug sensitivity score (Vero E6 [2]),drug sensitivity score (HepG2 [3]),drug sensitivity score (U2OS [4]),drug sensitivity score (Caco-2 [5]),relative viability EC50 (Vero E6 [6]) [µM],relative viability EC50 (HepG2 [7]) [µM],relative viability EC50 (U2OS [8]) [µM],relative viability EC50 (Caco-2 [9]) [µM],cell viability (Calu-3 [10]; 1 nM) [%],cell viability (Calu-3 [10]; 10 nM) [%],cell viability (Calu-3 [10]; 100 nM) [%],cell viability (Calu-3 [10]; 1000 nM) [%],cell viability (Calu-3 [10]; 10000 nM) [%],cell viability (Vero E6 [11]; 1 nM) [%],cell viability (Vero E6 [11]; 10 nM) [%],cell viability (Vero E6 [11]; 100 nM) [%],cell viability (Vero E6 [11]; 1000 nM) [%],cell viability (Vero E6 [11]; 10000 nM) [%],cell viability (HepG2 [12]; 1 nM) [%],cell viability (HepG2 [12]; 10 nM) [%],cell viability (HepG2 [12]; 100 nM) [%],cell viability (HepG2 [12]; 1000 nM) [%],cell viability (HepG2 [12]; 10000 nM) [%],cell viability (U2OS [13]; 1 nM) [%],cell viability (U2OS [13]; 10 nM) [%],cell viability (U2OS [13]; 100 nM) [%],cell viability (U2OS [13]; 1000 nM) [%],cell viability (U2OS [13]; 10000 nM) [%],cell viability (Caco-2 [14]; 1 nM) [%],cell viability (Caco-2 [14]; 10 nM) [%],cell viability (Caco-2 [14]; 100 nM) [%],cell viability (Caco-2 [14]; 1000 nM) [%],cell viability (Caco-2 [14]; 10000 nM) [%],relative viability EC50 (Calu-3 [15]) [µM]
Cc1ccc(CCCO)c(NCc2ccc3nc(NCCCN4CCOCC4)n(Cc4nc(C)ccc4O)c3c2)c1,1.9,0,0,0,0,> 10,> 10,> 10,> 10,115,96.4,104,93.6,74.8,99.6,92.7,97.7,102,102,89.5,100,103,109,89.1,98.1,97.1,97.6,96.5,95.1,101,97.7,97.6,101,90,
O=C(Nc1ccc(S(=O)(=O)C(F)(F)F)cc1)C1=CCN(c2ncccc2C(F)(F)F)CC1,0.5,0.7,3.9,0.2,2.2,> 10,2.67,> 10,,96.2,106,99.6,101,79.9,99.6,91.7,91.3,88.9,94.7,107,87.9,104,96.2,38.6,96.1,101,93.2,101,84.9,97.3,98.4,90.7,97.4,62.4,> 10
"CCCn1c(=O)c2nc(-c3ccccc3)[nH]c2n(CCC)c1=O [1,3-dipropyl-8-phenylxanthine]",0,0,2.7,0,0.4,> 10,,> 10,> 10,102,102,101,102,89.4,96.6,95.4,94,95.7,94.9,108,99.8,103,90.3,69.5,98.1,95.4,90.1,97.1,90.5,91.1,96.4,90.3,102,81.9,> 10
Nc1nc(Cl)nc2c1ncn2[C@@H]1O[C@H](CO)[C@@H](O)[C@H]1O [2-chloroadenosine],0.1,0,0.3,0,,> 10,> 10,> 10,,110,103,98.8,113,84.5,93.4,102,103,102,93.7,99.9,101,104,104,81.8,101,96.1,102,107,101,,,,,,> 10
O=Cc1ccc(CO)o1 [5-HMF],0,0,,0,,> 10,,> 10,,96.6,98.2,97.3,94.5,104,103,99.9,99.7,105,97.3,,,,,,99.6,99.8,104,102,106,,,,,,> 10
CN(C)c1nc(N)c(C(=O)Nc2cccnc2)nc1Cl [ACDPP],0,0,4.5,0,0,> 10,,> 10,> 10,100,96.8,104,96.4,94.6,102,95.3,98.3,95.1,99.9,104,105,103,80.9,58.9,93.6,98,97.7,98.5,105,87.4,98.7,93,89.2,87.9,> 10
CN(C)C(=O)c1ccc(S(=O)(=O)c2ccc(NC(=O)[C@@](C)(O)C(F)(F)F)c(Cl)c2)cc1 [AZD7545],0,0.2,2,0.1,1.2,> 10,,> 10,> 10,99.6,107,85.2,94,102,101,99,99.7,89,90.9,94.3,99.1,95,99.1,61,94.5,104,91.9,103,84.9,103,96.3,96.7,96.1,79.6,> 10
O=C(NO)C1(CS(=O)(=O)c2ccc(Oc3ccc(Cl)cc3)cc2)CCOCC1 [CTS-1027],0,0,0,0,1.2,> 10,> 10,> 10,,95,101,93.1,104,98.2,101,104,99.4,95,94.5,97.7,88.7,104,83.5,96.3,99.7,105,100,106,88.1,104,109,105,98.8,74.3,> 10
O=C1Nc2ccc(I)cc2C1=Cc1cc(Br)c(O)c(Br)c1 [GW-5074],0,0,1.8,0,0.2,> 10,,> 10,> 10,95.1,94.2,104,90.9,114,97,97.3,95.8,96,108,90.3,98.5,97.3,97.5,68.9,99.3,97.3,100,96.1,95.5,95.6,97.5,108,95,88.3,> 10
O=C1C[C@@H](c2ccc(O)cc2)Oc2cc(O)ccc21 [MF-101],0,0,0,0,0.4,> 10,> 10,> 10,,103,112,106,104,99.4,101,102,95.3,92.1,99.8,95.8,93.7,103,97.6,90.4,98.4,95.4,96.4,99.7,95.9,81.1,99.7,92.3,103,78.1,> 10
CCc1nc(-c2cccc(C)c2)c(-c2ccnc(NC(=O)c3ccccc3)c2)s1 [TAK-715],1,0.8,1.8,0.4,4.3,> 10,,> 10,,90.5,101,91.8,93.7,78.2,93.5,102,94.8,90.6,82.2,93,94.6,94.6,94.6,73.5,100,103,98.3,93.6,85.5,97.5,102,92,78.1,65.6,> 10
CCc1ccc2c(-c3cccc(Cl)c3)nc(=O)n(CC)c2n1 [YM-976],0,0,0.1,,0,> 10,> 10,,> 10,109,98.7,101,98.3,108,96.6,97.3,92.3,90.1,91.9,95.9,104,97,103,86.3,,,,,,104,95.6,104,109,97.1,> 10
Nc1nc2c(ncn2COCCO)c(=O)[nH]1 [acyclovir],0,0,0,0,,> 10,> 10,> 10,,95.3,101,102,106,119,110,92.7,98.3,98,101,96.3,92,95.1,94.7,96.3,91.6,101,94.7,99.7,104,,,,,,> 10
O=C(Cn1ccnc1[N+](=O)[O-])NCc1ccccc1 [benznidazole],,0,0,0,0,> 10,> 10,> 10,> 10,,,,,,97.3,98.5,96.4,101,98.1,97.3,95.9,93.7,94.4,94.2,98,97.3,92.4,90,99.8,98,98.8,96.4,93.2,96,
CC(=O)O[C@]1(C(C)=O)CC[C@H]2[C@@H]3C=C(Cl)C4=CC(=O)CC[C@]4(C)[C@H]3CC[C@@]21C [chlormadinone-acetate],,0,0,0,0,> 10,> 10,> 10,> 10,,,,,,93.2,96.9,91.9,92.5,90,98.1,98.8,100,92,112,97.2,92.7,96.1,90.6,95,101,106,115,98.8,103,

# From the supplement of paper PMC13380429
